Source: patent US20250205234A1, “ANTI-TUBERCULAR COMPOSITIONS” (priority 2022, published 2025)
In brackets after ≈: the same amount, converted by molar mass. Where two headings read alike, the source gives them in different places.

Legend:
[1] = test system: E. coli UTI 189; experiment: Biofilm assay, E. coli; assay type: cell-based, Escherichia coli; conditions: 3 h pre-formed biofilm; 3-9 μM GaMF1.39 or 1-3 μM BDQ; PBS or M9 glucose media
[2] = test system: P. aeruginosa PAO1 WT; experiment: Biofilm assay, P. aeruginosa; assay type: cell-based, Pseudomonas aeruginosa; conditions: 3 h pre-formed biofilm; 3-9 μM GaMF1.39 or 1-3 μM BDQ; PBS or M9 glucose media
[3] = test system: M. smegmatis F-ATP synthase; assay type: biochemical; conditions: for Inhibition of ATP synthesis of reconstituted MsF-ATP synthase: compound at its IC50 concentration (BDQ 4 nM; GaMF1.39 90 nM)
[4] = test system: M. bovis BCG; experiment: microbe, parasite or virus in culture; assay type: cell-based; conditions: for MIC: Mycobacterium tuberculosis variant bovis BCG, BCG
[5] = test system: M. smegmatis mc^2 155; assay type: cell-based
[6] = test system: M. bovis BCG; experiment: microbe, parasite or virus in culture; assay type: cell-based; conditions: Mycobacterium tuberculosis variant bovis BCG, 120 h, read-out: minimal inhibitory concentration (MIC50)
[7] = biological target: M. smegmatis 166M c-subunit mutant IMVs (Mycolicibacterium smegmatis, UniProt A0R201+A0R205+A0R206, I70M); experiment: biochemical; conditions: read-out: IC50 ATP synthesis, 166M mutant IMVs
[8] = biological target: mycobacterial F-ATP synthase (Mycobacterium bovis, UniProt A1KI93+A1KI97); conditions: read-out: IC50 NADH-driven ATP synthesis of IMVs, IMVs of M. bovis BCG; cited from earlier work
Chain of mycobacterial F-ATP synthase (Mycobacterium bovis, UniProt A1KI93+A1KI97) (A1KI93 whole entry, looked up): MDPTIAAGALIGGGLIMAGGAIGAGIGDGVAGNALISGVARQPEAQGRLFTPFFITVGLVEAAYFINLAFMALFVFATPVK
Chain of mycobacterial F-ATP synthase (Mycobacterium bovis, UniProt A1KI93+A1KI97) (A1KI97 whole entry, looked up): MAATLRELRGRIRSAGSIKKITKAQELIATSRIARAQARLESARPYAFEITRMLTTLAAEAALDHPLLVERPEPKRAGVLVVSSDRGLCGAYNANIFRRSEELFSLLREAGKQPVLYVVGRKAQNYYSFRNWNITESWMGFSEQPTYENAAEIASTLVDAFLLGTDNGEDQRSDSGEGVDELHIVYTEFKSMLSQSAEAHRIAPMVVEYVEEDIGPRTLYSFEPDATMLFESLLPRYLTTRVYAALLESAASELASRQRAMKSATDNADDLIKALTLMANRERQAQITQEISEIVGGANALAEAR

[9] = test system: transmembrane pH gradient of mycobacterial IMVs; experiment: Proton translocation / uncoupling assay in IMVs (ACMA fluorescence quenching); assay type: biochemical, M. smegmatis; conditions: 2 mM NADH, uncoupler SF6847 as positive control
[10] = Microsomal stability assay; assay type: in vitro ADME; conditions: pH 7.4; mouse liver microsomes
Description: Microsomal stability assay were outsourced and performed by Bioduro-Sundia Ltd, USA based on the following protocol as done in Obach, R. S., Drug Metab. Dispos., 1999, 27, 1350; McGinnity, D. F. & Riley, R. J., Biochem. Soc. Trans., 2001, 29, 135. Working solutions of each compound are prepared from 10 mM stock solution in DMSO diluted to a final concentration of 100 μM in 0.05 M phosphate buffer (pH 7.4). Aliquots of Liver Microsome working solution are transferred into 1.1 mL tubes using a multichannel pipette. Positive control (5 mixed) and test compound working solutions are transferred into the tubes. The mixtures are vortexed gently and then pre-incubated at 37° C. 5 mM NADPH were aliquoted into the tubes using a multichannel pipette and vortexed gently. At each time point of 0 min, 5 min, 15 min, 30 min and 60 min with NADPH or 0, 30 min and 60 min without NADPH, an aliquot is removed from each tube. […] Each compound is analyzed by reversed phase HPLC using a Kinetex 2.6μ C18 100 Å column (3.0 mm×30 mm, Phenomenex). […] The amount of parent compound is determined on the basis of the peak area ratio (compound area to IS area) for each time point. The estimation of Clint (in μL/min/mg protein) is calculated using the following equation: CLint (μLmin^−1 mg^−1)=ln(2)*1000/t1/2/protein concentration

[11] = test system: M. bovis BCG; assay type: cell-based; conditions: 7 μM, 96 h, methylene blue
[12] = test system: mycobacterial F-ATP synthase; conditions: IMVs of M. smegmatis, NADH; read-out: IC50 NADH-driven ATP synthesis of IMVs; cited from earlier work
[13] = test system: Mtb; conditions: Hotra et al. 2020; cited from earlier work
[14] = test system: M. bovis BCG; assay type: cell-based
[15] = test system: zebrafish embryos; experiment: Toxicity testing using zebrafish embryos; assay type: in vivo; conditions: 9 μM, 48 hpf embryos, 5 days
Description: Zebrafish care and ethics statement: All Zebrafish experiments were approved by the NTU Institutional Animal Care and Use Committee under reference no #A20038. Experiments were done using wild-type AB zebrafish. The ages of the embryos are shown in hours post fertilization (hpf).
Dechorionated zebrafish wild-type embryos at 48 hpf (n=120) were used. The embryos were immersed respectively in 5 ml of E3 medium containing GaMF1.39 in 6-well plate for 5 days. DMSO was used as vehicle control. The embryos were observed under a microscope. […] The experiment was repeated twice with three replicates each.

[16] = test system: M. bovis BCG cells; experiment: microbe, parasite or virus in culture; assay type: cell-based; conditions: Mycobacterium tuberculosis variant bovis BCG, read-out: IC50 intracellular ATP inhibition
[17] = test system: M. tuberculosis H37Rv-infected THP-1 cells; experiment: THP-1 macrophage infection model, intracellular efficacy

COc1nc2ccc(Br)cc2cc1[C@@H](c1ccccc1)[C@@](O)(CCN(C)C)c1cccc2ccccc12 [BDQ, bedaquiline, reference compound]
Killing of planktonic or biofilm cells [1]: No significant differences | Killing of planktonic or biofilm cells [2]: No significant differences | Inhibition of ATP synthesis of reconstituted MsF-ATP synthase [3]: ~51%

CC(C)/N=c1\cc2n(-c3ccc(Cl)cc3)c3ccccc3nc-2cc1Nc1ccc(Cl)cc1 [Clofazamine, clofazimine]
MIC Drug B alone ([4]; Clofazamine alone): 0.25 µM (≈ 0.118 µg/mL) | MIC Drug B in combination ([4]; Clofazamine in combination with GaMF1.39): 0.125 µM

CCNc1cc(C)nc(Nc2ccc3nc(-c4ccc(Cl)cc4)[nH]c3c2)n1 [GaMF1.39]
Killing of M. smegmatis mc^2 155 [5]: killed | MIC50 [6]: 6.8 µM (≈ 2.58 µg/mL) | Killing of planktonic or biofilm cells [1]: no killing of planktonic or biofilm cells | Killing of planktonic or biofilm cells [2]: no killing of planktonic or biofilm cells | IC50 [7]: 64 nM | ATP synthesis activity of reconstituted MsF-ATP synthase with compound ([3]; GaMF1.39 at its IC50 concentration, no compound 35.2±2.3): 20.5±2.6 nmol·min^−1 (mg protein)^−1 | Inhibition of ATP synthesis of reconstituted MsF-ATP synthase [3]: 42% | IC50 [8]: 51.6 ± 1.35 nM | Uncoupled proton pumping (ACMA quenching) [9]: lacked the ability to induce uncoupled proton pumping | half-life [10]: 29.6 min | microsomal CLint [10]: 46.8 µL/min/mg | Oxygen consumption within the respiratory chain [11]: unaffected | IC50 [12]: 90 ± 1.1 nM | MIC50 against Mtb [13]: 3.0 µM (≈ 1.14 µg/mL) | Killing efficiency against M. bovis BCG ([14]; 8-fold its MIC50, up to 6 days, CFU): more efficient than its parental molecule GaMF1 | Growth of M. bovis BCG cultures in killing kinetics experiment ([14]; GaMF1.39 10×MIC50, with or without Q203 100 nM, t=10 days): inhibited the growth of M. bovis cells even after 10 days | Toxicity in zebrafish embryos (survival) [15]: no signs of toxicity-induced killing | IC50 [16]: 3300 nM | MIC Drug A in combination ([4]; GaMF1.39 in combination with Clofazamine): 3 µM | MIC Drug A in combination ([4]; GaMF1.39 in combination with Q203): 0.23 µM | MIC ([4]; 144 h, read-out: MIC Drug A alone): 6.8 µM (≈ 2.58 µg/mL) | Intracellular efficacy, viable bacterial count (CFU/ml) ([17]; 3 and 9 μM, compared with initial inoculum (day 0)): showed a decrease in viable bacterial count | Alteration of infected macrophages (microscopy) ([17]; THP-1 macrophages treated with GaMF1.39): did not show any visible optical alteration of the membrane, cell form or cell size

CCc1nc2ccc(Cl)cn2c1C(=O)NCc1ccc(N2CCC(c3ccc(OC(F)(F)F)cc3)CC2)cc1 [Q203, Telacebec]
MIC ([4]; read-out: MIC Drug B alone): 0.001 µM (≈ 0.000557 µg/mL) | MIC Drug B in combination ([4]; Q203 in combination with GaMF1.39): 0.0005 µM
